{
  "source": "patent US7663026B2",
  "about": "“Transformation of seaweed utilizing biolistic gene transfer to spores” (Institute of Oceanology Chinese Academy of Sciences, priority 2003, dated 2010)",
  "key": {"Undaria": {"tested_on": "Undaria", "assay": "Sensitivity of Undaria to antibiotics/herbicide (selectable reagents)", "format": "in vivo", "conditions": "qualitative ranking"}, "Laminaria": {"tested_on": "Laminaria", "assay": "Sensitivity of Laminaria to antibiotics/herbicide (selectable reagents)", "format": "in vivo", "conditions": "qualitative ranking"}},
  "data": [
    {"compound": "O=C(N[C@H](CO)[C@H](O)c1ccc([N+](=O)[O-])cc1)C(Cl)Cl", "note": "[chloramphenicol]", "values": [
      {"measurement": "sensitivity of the seaweed to the antibiotic or herbicide", "setting": "Undaria", "result": "sensitive"},
      {"measurement": "sensitivity of the seaweed to the antibiotic or herbicide", "setting": "Laminaria", "result": "sensitive"}
    ]}
  ]
}
